Measured values published in patent US12172995B2, “Substituted indole and indazole compounds” (BRISTOL-MYERS SQUIBB COMPANY, priority 2018, dated 2024).

Legend:
Format in all cases: cell-based
human TLR7 = target: T1, human TLR7 (Homo sapiens, UniProt Q9NYK1); assay: TLR7 inhibition reporter assay (HEK-Blue SEAP); conditions: HEK-Blue cells overexpressing human TLR7, stimulated with gardiquimod 7.5 μM, 22 hour incubation
T1 construct: host or cells: HEK-Blue cells
T1 sequence (Q9NYK1 27-1049): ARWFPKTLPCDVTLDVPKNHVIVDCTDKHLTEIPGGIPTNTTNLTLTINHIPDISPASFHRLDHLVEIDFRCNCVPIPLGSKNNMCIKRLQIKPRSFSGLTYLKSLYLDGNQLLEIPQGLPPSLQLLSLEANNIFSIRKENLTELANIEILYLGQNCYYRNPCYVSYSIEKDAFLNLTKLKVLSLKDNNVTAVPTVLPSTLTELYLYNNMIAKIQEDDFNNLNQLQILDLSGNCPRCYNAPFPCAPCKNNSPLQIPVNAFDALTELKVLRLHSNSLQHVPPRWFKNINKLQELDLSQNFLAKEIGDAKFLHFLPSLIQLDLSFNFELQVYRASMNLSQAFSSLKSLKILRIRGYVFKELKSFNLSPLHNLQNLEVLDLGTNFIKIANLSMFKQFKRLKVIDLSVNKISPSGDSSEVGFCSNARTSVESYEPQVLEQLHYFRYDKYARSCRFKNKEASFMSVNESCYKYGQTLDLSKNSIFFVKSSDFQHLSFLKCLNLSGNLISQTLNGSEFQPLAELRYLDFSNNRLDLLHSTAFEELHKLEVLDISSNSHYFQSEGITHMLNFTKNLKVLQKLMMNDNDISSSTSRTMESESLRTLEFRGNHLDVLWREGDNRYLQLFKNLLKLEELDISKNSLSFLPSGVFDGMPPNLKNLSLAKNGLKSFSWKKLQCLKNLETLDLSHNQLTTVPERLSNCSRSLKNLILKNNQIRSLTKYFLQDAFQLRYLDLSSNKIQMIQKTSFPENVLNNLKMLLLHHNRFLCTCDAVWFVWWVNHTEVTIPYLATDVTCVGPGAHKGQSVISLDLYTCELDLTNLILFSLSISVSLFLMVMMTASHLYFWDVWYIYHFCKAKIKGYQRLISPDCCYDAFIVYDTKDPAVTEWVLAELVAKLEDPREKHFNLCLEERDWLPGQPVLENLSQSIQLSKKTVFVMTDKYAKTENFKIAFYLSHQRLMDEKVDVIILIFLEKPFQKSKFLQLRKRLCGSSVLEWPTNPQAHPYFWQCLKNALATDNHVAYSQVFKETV
Description: (§1) TLR7/8/9 Inhibition Reporter Assays
(§2) HEK-Blue™-cells (Invivogen) overexpressing human TLR7, TLR8 or TLR9 receptors were used for screening inhibitors of these receptors using an inducible SEAP (secreted embryonic alkaline phosphatase) reporter gene under the control of the IFN-β minimal promoter fused to five NF-κB and AP-1-binding sites. Briefly, cells are seeded into Greiner 384 well plates (15000 cells per well for TLR7, 20,000 for TLR8 and 25,000 for TLR9) and then treated with test compounds in DMSO to yield a final dose response concentration range of 0.05 nM to 50 μM. After a 30 minute compound pre-treatment at room temperature, the cells are then stimulated with a TLR7 ligand (gardiquimod at a final concentration of 7.5 μM), TLR8 ligand (R848 at a final concentration of 15.9 μM) or TLR9 ligand (ODN2006 at a final concentration of 5 nM) to activate NF-κB and AP-1 which induce the production of SEAP. After a 22 hour incubation at 37° C., 5% CO2, SEAP levels are determined with the addition of HEK-Blue™ Detection reagent (Invivogen), a cell culture medium that allows for detection of SEAP, according to manufacturer's specifications. The percent inhibition is determined as the % reduction in the HEK-Blue signal present in wells treated with agonist plus DMSO alone compared to wells treated with a known inhibitor.

human TLR8 = target: T2, human TLR8 (Homo sapiens, UniProt Q9NR97); assay: TLR8 inhibition reporter assay (HEK-Blue SEAP); conditions: HEK-Blue cells overexpressing human TLR8, stimulated with R848 15.9 μM, 22 hour incubation
T2 construct: host or cells: HEK-Blue cells
T2 sequence (Q9NR97 27-1041): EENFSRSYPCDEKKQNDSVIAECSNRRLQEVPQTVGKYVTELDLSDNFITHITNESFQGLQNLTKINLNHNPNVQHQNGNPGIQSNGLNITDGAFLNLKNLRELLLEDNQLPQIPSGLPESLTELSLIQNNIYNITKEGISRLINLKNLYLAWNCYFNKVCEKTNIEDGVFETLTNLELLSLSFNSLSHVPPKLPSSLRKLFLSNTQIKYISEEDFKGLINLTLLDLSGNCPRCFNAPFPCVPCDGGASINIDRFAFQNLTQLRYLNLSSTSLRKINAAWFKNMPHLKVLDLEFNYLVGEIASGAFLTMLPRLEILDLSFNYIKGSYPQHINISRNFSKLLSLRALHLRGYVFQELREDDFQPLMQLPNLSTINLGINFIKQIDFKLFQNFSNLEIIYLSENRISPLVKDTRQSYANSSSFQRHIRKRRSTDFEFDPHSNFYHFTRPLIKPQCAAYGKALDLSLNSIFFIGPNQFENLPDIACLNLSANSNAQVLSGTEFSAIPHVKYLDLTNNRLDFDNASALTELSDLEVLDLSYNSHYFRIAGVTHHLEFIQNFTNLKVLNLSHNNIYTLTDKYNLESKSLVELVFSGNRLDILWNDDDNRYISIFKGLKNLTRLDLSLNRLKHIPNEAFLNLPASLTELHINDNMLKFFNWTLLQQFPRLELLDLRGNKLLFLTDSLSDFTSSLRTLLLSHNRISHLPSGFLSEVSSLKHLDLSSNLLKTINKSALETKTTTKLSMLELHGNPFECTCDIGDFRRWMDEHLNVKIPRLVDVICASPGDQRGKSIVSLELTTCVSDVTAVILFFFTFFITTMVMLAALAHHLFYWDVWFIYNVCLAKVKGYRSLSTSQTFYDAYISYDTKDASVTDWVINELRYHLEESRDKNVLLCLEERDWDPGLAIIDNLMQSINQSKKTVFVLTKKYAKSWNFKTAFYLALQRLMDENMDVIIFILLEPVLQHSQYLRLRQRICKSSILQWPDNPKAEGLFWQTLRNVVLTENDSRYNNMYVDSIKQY
Description: as §1, §2

human TLR9 = target: T3, human TLR9 (Homo sapiens, UniProt Q9NR96); assay: TLR9 inhibition reporter assay (HEK-Blue SEAP); conditions: HEK-Blue cells overexpressing human TLR9, stimulated with ODN2006 5 nM, 22 hour incubation
T3 construct: host or cells: HEK-Blue cells
T3 sequence (Q9NR96 26-1032): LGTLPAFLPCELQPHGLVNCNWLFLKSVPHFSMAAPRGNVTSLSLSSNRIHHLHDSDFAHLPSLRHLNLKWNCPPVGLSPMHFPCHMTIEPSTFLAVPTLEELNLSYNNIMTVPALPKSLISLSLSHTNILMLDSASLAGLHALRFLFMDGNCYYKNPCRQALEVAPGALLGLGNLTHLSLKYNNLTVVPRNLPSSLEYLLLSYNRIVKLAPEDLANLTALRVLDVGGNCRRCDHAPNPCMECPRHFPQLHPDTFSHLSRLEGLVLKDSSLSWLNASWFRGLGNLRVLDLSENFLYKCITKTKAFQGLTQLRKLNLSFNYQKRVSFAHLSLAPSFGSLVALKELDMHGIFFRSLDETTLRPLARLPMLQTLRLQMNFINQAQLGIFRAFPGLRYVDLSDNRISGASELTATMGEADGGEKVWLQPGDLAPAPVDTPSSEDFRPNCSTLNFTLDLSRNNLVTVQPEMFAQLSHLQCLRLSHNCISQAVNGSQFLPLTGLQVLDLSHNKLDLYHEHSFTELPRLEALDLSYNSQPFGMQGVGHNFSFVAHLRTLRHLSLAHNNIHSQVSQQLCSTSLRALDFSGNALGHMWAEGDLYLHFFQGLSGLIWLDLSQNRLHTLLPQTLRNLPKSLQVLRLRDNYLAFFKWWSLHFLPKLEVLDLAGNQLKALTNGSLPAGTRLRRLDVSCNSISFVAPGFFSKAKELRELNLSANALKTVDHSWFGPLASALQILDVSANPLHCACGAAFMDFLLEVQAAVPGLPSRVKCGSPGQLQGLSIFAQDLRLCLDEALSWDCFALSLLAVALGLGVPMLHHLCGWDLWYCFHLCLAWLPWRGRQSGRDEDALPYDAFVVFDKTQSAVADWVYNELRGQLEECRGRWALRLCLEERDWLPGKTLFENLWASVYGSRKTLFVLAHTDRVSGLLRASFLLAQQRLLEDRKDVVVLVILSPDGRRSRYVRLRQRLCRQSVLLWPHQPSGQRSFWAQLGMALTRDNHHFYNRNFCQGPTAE
Description: as §1, §2

| SMILES | IC50 (human TLR7) [nM] | IC50 (human TLR8) [nM] | IC50 (human TLR9) [nM] |
| --- | --- | --- | --- |
| Cc1cc(-c2cc3[nH]nc(C4CCC(NC5CC5)CC4)c3cc2C(C)C)cn2ncnc12 (single isomer, unassigned) [Example 118, N-cyclopropyl-4-(5-isopropyl-6-(8-methyl-[1,2,4]triazolo[1,5-a]pyridin-6-yl)-1H-indazol-3-yl)cyclohexan-1-amine] | 0.3 | 0.1 | 4130 |
| COc1cc(-c2cc(C)c3c(OC4CCC(N(C)C)CC4)n[nH]c3c2)cn2ncnc12 (single isomer, unassigned) [Example 184, 4-((6-(8-methoxy-[1,2,4]triazolo[1,5-a]pyridin-6-yl)-4-methyl-1H-indazol-3-yl)oxy)-N,N-dimethylcyclohexan-1-amine] | 1.8 | 1.8 | 1190 |
| Cc1cc(-c2cc3[nH]nc(N4CCNCC4)c3cc2C(C)C)cn2ncnc12 [Example 206, 6-(5-isopropyl-3-(piperazin-1-yl)-1H-indazol-6-yl)-8-methyl-[1,2,4]triazolo[1,5-a]pyridine] | 3.2 | 16.4 | 21900 |
| Cc1cc(-c2cc(C)c3ncnn3c2)cc2[nH]nc(C3CCCN(C4CCOCC4)C3)c12 (stereo not drawn) [Example 60, 8-methyl-6-(4-methyl-3-(1-(tetrahydro-2H-pyran-4-yl)piperidin-3-yl)-1H-indazol-6-yl)-[1,2,4]triazolo[1,5-a]pyridine] | 79.3 | 62.2 | 4250 |
| Cc1cc2c(N)n[nH]c2cc1-c1cc(C)c2ncnn2c1 [Example 201, 5-methyl-6-(8-methyl-[1,2,4]triazolo[1,5-a]pyridin-6-yl)-1H-indazol-3-amine] | 857 | 55.7 | ≥ 50000 |
| CCOC1CN(C2CCC(c3n[nH]c4cc(-c5cc(C)c6ncnn6c5)c(C(C)C)cc34)CC2)C1 (single isomer, unassigned) [Example 149, 6-(3-(4-(3-ethoxyazetidin-1-yl)cyclohexyl)-5-isopropyl-1H-indazol-6-yl)-8-methyl-[1,2,4]triazolo[1,5-a]pyridine] | 0.8 | 0.4 | 7480 |
| Cc1cc(-c2ccc3c(C4CCNCC4)n[nH]c3c2)cn2ncnc12 [Example 17, 8-methyl-6-(3-(piperidin-4-yl)-1H-indazol-6-yl)-[1,2,4]triazolo[1,5-a]pyridine] | 388 | 328 | 3190 |
| Cc1cc2c(C3CCCN(C(=O)CN(C)C)C3)n[nH]c2cc1-c1cc(C)c2ncnn2c1 (stereo not drawn) [Example 40, 2-(dimethylamino)-1-(3-(5-methyl-6-(8-methyl-[1,2,4]triazolo[1,5-a]pyridin-6-yl)-1H-indazol-3-yl)piperidin-1-yl)ethan-1-one] | 23.4 | 4.6 | 13000 |
| Cc1cc(-c2cc3[nH]nc(C4CCC(N5CCC5)CC4)c3cc2C(C)C)cn2ncnc12 (single isomer, unassigned) [Example 139, 6-(3-(4-(azetidin-1-yl)cyclohexyl)-5-isopropyl-1H-indazol-6-yl)-8-methyl-[1,2,4]triazolo[1,5-a]pyridine] | 1.2 | 0.1 | 6250 |
| Cc1cc(-c2cc3[nH]nc(C4CCC(N5CCCC5)CC4)c3cc2C(C)C)cn2ncnc12 (single isomer, unassigned) [Example 131, 6-(5-isopropyl-3-(4-(pyrrolidin-1-yl)cyclohexyl)-1H-indazol-6-yl)-8-methyl-[1,2,4]triazolo[1,5-a]pyridine] | 2 | 0.3 | 4570 |
| Cc1cc2c(NCCN3CCCC3)n[nH]c2cc1-c1cc(C)c2ncnn2c1 [Example 204, 5-methyl-6-(8-methyl-[1,2,4]triazolo[1,5-a]pyridin-6-yl)-N-(2-(pyrrolidin-1-yl)ethyl)-1H-indazol-3-amine] | 85.9 | 1.9 | 2530 |
| Cc1cc(-c2cc(C)c3ncnn3c2)cc2[nH]nc(OC3CCC(NC4CC4)CC3)c12 (single isomer, unassigned) [Example 189, N-cyclopropyl-4-((4-methyl-6-(8-methyl-[1,2,4]triazolo[1,5-a]pyridin-6-yl)-1H-indazol-3-yl)oxy)cyclohexan-1-amine] | 12.2 | 8.2 | 2340 |
